Measured values from patent US20120270928A1, “MICRORNA COMPOUNDS AND METHODS FOR MODULATING MIR-21 ACTIVITY” (REGULUS THERAPEUTICS INC., priority 2011, published 2012).
Several values for one entry are separate records, joined by “and”; a condition that tells them apart may be missing. Equal values may be shown once. Entries after “also recorded” stand apart in the source; their conditions may differ.

Legend:
[1] = tested on: miR-21; experiment: miR-21 luciferase sensor assay in Hela cells; format: cell-based
[2] = tested on: model of ischemia reperfusion injury (IRI); experiment: Unilateral IRI model: collagen area fraction of kidney tissue; format: in vivo, mouse; conditions: for reduction in collagen area fraction (significance): IRI; for Collagen Area Fraction (#) Mean: group mean; for Collagen Area Fraction (#): 20 mg/kg
Protocol: A model of ischemia reperfusion injury (IRI) is created in the mouse through unilateral or bilateral clamping of kidney arteries, which leads to tubule damage, inflammation, and fibrosis. Kidney dysfunction can occur either early (<5 days) or late (>7 days) in this model, with the early time points useful to test candidate agents for the treatment of acute kidney injury, and the later time points useful to model chronic fibrosis.
Anti-miR-21 compounds were tested in the unilateral IRI model. Unilateral IRI was induced for a period of 30 minutes. Treatment groups were as follows: sham IRI procedure; IRI with PBS administered subcutaneously; IRI with anti-miR-21 compound 25070 administered intraperitoneally at a dose of 20 mg/kg; the 2′-fluoro/2′-MOE modified anti-miR-21 25919 administered intraperitoneally at a dose of 20 mg/kg; and a 2′-fluoro/2′ modified mismatch anti-miR-21 (having three mismatches to the sequence of miR-21) 25319 administered intraperitoneally at a dose of 20 mg/kg. PBS or anti-miR compound was administered on days 5, 6, and 7 following IRI, and animals were sacrificed 14 days after IRI. As anti-miR compound is administered 5 days following the injury to the kidney, or later, when fibrosis has already occurred to some extent, this treatment regimen is considered a therapeutic regimen, rather than a prophylactic regimen.
Kidney tissue was collected for analysis of collagen 1A1 and collagen 3A1 expression (shown in Table 0), and collagen area fraction (shown in Table P).
A similar study was performed with the same treatment groups and additional days of treatment. In this study, treatments were administered intraperitoneally at days 5, 6, 7, 14, and 21 following the IRI procedure Animals were sacrificed on Day 27, and kidney tissue was collected for analysis of collagen 1A1 and collagen 3A1 expression, as well as collagen area fraction.

[3] = 4 nM oligonucleotide, Hela cells
[4] = 20 nM oligonucleotide, Hela cells
[5] = 100 nM oligonucleotide, Hela cells
[6] = 500 nM oligonucleotide, Hela cells, two experimental replicates
[7] = .16 nM oligonucleotide, Hela cells
[8] = .8 nM oligonucleotide, Hela cells
[9] = Table P, unilateral IRI, 20 mg/kg intraperitoneally on days 5, 6, 7, day 14, IRI-PBS mean 15.1
[10] = Table P, individual animals, unilateral IRI, 20 mg/kg intraperitoneally on days 5, 6, 7, day 14
[11] = unilateral IRI mouse, 20 mg/kg intraperitoneally on days 5, 6, 7, 14, and 21, sacrificed Day 27
[12] = individual animals (not same as PCR), unilateral IRI mouse, 20 mg/kg intraperitoneally on days 5, 6, 7, 14, and 21, sacrificed Day 27

Sequence	luciferase value normalized to beta-galactosidase activity [1, 3]	luciferase value normalized to beta-galactosidase activity [1, 4]	luciferase value normalized to beta-galactosidase activity [1, 5]	luciferase value normalized to beta-galactosidase activity [1, 6]	luciferase value normalized to beta-galactosidase activity [1, 7]	luciferase value normalized to beta-galactosidase activity [1, 8]	inhibition of miR-21 activity in the luciferase assay (in words) ([1]; Hela cells)	fold change in luciferase value relative to the mock treatment ([1]; concentration of anti-miR compound 0.2 (unit not given)) [fold change]	fold change in luciferase value relative to the mock treatment ([1]; concentration of anti-miR compound 0.6 (unit not given)) [fold change]	fold change in luciferase value relative to the mock treatment ([1]; concentration of anti-miR compound 1.9 (unit not given)) [fold change]	fold change in luciferase value relative to the mock treatment ([1]; concentration of anti-miR compound 5.6 (unit not given)) [fold change]	fold change in luciferase value relative to the mock treatment ([1]; concentration of anti-miR compound 16.7 (unit not given)) [fold change]	fold change in luciferase value relative to the mock treatment ([1]; concentration of anti-miR compound 50.0 (unit not given)) [fold change]	reduction in collagen area fraction (significance) ([2]; 20 mg/kg intraperitoneally on days 5, 6, and 7, sacrifice 14 days after IRI)	reduction in collagen area fraction (significance) ([2]; intraperitoneally at days 5, 6, 7, 14, and 21, sacrifice Day 27)	Collagen Area Fraction (#) Mean [2, 9]	Collagen Area Fraction (#) [2, 10]	Collagen Area Fraction (#) Mean [2, 11]	Collagen Area Fraction (#) [2, 12]
AECSATCSAGTCSTGAUSAAGCSTAE (ACATCAGTCTGATAAGCTA; modified nucleosides, phosphorothioate linkages, chemistry not fully specified) [Compound 25070]	99	128	132	165	65	87	inhibition of miR-21 in a dose-dependent manner; also recorded: potent inhibitor of miR-21 activity	1.04	1.01	1.14	6.22	11.28	11.00	statistically significant reduction	statistically significant reduction	9.7 #	10.266 # and 11.772 # and 10.267 # and 8.404 # and 7.862 # and 6.975 # and 8.381 # and 13.773 #	10.1	7.354 and 9.241 and 9.589 and 11.573 and 8.182 and 10.695 and 13.978 and 10.12
UECEAFAFCFAFUFCFAFGFUFCEUEGEAFUFAFAFGFCFUEAE (antisense TCAACATCAGTCTGATAAGCTA; listed as DNA, chemistry not fully specified) [Compound 25919, reference compound]	84	114	171	202	40	53										8.2 #	7.093 # and 8.254 # and 8.095 # and 8.559 # and 8.681 # and 6.31 # and 8.416 # and 9.905 #	12.8	11.882 and 9.755 and 9.506 and 12.654 and 20.319 and 11.551 and 12.224 and 14.468
